In assay [1] the test system is RBCs. Nature of the assay: Deformability cytometer: velocity of glutaraldehyde-treated RBCs through constrictions. Format: cell-based, human. The text has this:
The device design includes periodically spaced, triangle-shaped pillars and the gaps between these pillars result in well-controlled constrictions for RBCs to pass. The height of the device was set to 4.2 μm. RBCs were forced to assume a flat orientation before entering each constriction. This height, in addition to filters at the reservoirs, prevented white blood cells from entering the device, and permitted diluted whole blood to be used directly.
A mold of the device was made on a silicon wafer using photolithography and reactive-ion etching techniques. A 5× reduction step-and-repeat projection stepper (Nikon NSR2005i9, Nikon Precision) was used for patterning. The spacing between pillars was 3 μm, and the depth of the device was 4.2 μm. The device was made using standard PDMS casting protocols and bonded to a glass slide.
In experiments involving blood, 1 μl of whole blood (−50% hematocrit) was diluted in 100 μl of the PBS-pluronic-BSA solution for all of the experiments. In experiments involving parasites that express GFP, no further treatment was performed. In experiments involving healthy RBCs, 1 μl of whole blood (Research Blood Components, Brighton, Mass.), 1 μl of 50 μg/ml of Cell Tracker Orange (Invitrogen, Carlsbad, Calif.), and 98 μl of PBS were mixed with the indicated concentration of glutaraldehyde and allowed to sit for 30 minutes. The sample was then washed 3 times with the PBS-Pluronic-BSA solution. In experiments involving reticulocytes, 1 μl of whole blood, 89 μl of the PBS-Pluronic-BSA solution, and 10 μl of 1×10^−6M thiazole orange were mixed and allowed to sit for 20 minutes before starting experiments. Videos were obtained in which reticulocytes appear as uniformly fluorescent cells under the GFP filter set, while mature RBCs appear as shadows.
The PBS-Pluronic-BSA solution was pumped through the device for 30 minutes to coat the device walls with Pluronic and BSA. The RBC-PBS-Pluronic-BSA suspension was then injected into the device. Differences in pressure between the two reservoirs were generated hydrostatically by a difference in water column height. […]

In assay [2] the test system is P. falciparum-infected RBCs (iRBCs) and co-cultured uninfected RBCs (uRBCs). Nature of the assay: Microfluidic deformability cytometer: RBC mobility after artesunate drug treatment. Format: cell-based, human. The conditions noted are these: for separation resolution between iRBCs and uRBCs after drug treatment: after artesunate treatment vs untreated. From the text:
The device used in this example comprises a series of equally spaced triangular pillar arrays with pore sizes ranging from 2.5 to 4 um (FIG. 55A illustrates the case of 3 um pore size). Compared to the diameter of an average RBC (˜7.5 um), the smaller pore sizes are designed to impose similar mechanical constraints on the cells as if they are passing through blood capillaries and splenic meshwork. Driven by constant pressure gradient in the sub-Pascal-per-micrometer range, RBCs are able to deform substantially at each constriction and traverse along the channel. The dynamic deformability of RBCs is then characterized by their mobility: the ability to deform repeatedly in order to pass through multiple constrictions in series.
FIG. 55A depicts an experimental schematic of the microfluidic system. A heating chamber (Olympus) was mounted to the inverted microscope stage. Four heaters for the inner water bath, microscope stage, chamber top, and lens were designed to accurately control the ambient temperature inside the chamber. The PDMS-glass bonded device consists of the inlet and outlet reservoirs and main channels with triangular pillar arrays. It was placed inside the heating chamber with only the inlet reservoir connecting to an external syringe via a 20 cm-tubing. The reservoirs were 500×500 μm^2 squares with 20 μm-interspacing cylindrical pillar arrays; these pillar arrays could pre-filter white blood cells from whole blood, allowing only RBCs to pass through the main channels. Each of the parallel channels was 10 pillars wide and 200 pillars long. Along the flow direction, the inter-pillar spacing was 10 μm. This spacing allows deformed cells to recover and ready for subsequent deformations. Perpendicular to the flow direction, the pore size varied from 2.5 to 4 μm for different channels. Cells experience different levels of deformation when passing through these pores.
FIG. 55B presents microscopic screenshots illustrating both iRBCs and co-cultured uRBCs moving in the microchannel at different temperature conditions. The uninfected cells appear as dark shadows indicated by blue arrows, and the infected cells with thiazole orange (TO) staining appear as bright dots indicated by white arrows. The mobility of individual cells can then be derived by recording the time period for each cell passing through 10 constrictions in series (i.e. equivalent to 200 μm distance travelled). In this example, cell mobility is used to characterize the dynamic deformability of individual RBCs.
The deformability of both iRBCs and uRBCs were measured at 2, 4 and 6 hours after artesunate drug treatment (FIG. 60). A synchronized culture of rings with ˜15% parasitemia was resuspended at 0.1% hematocrit in malaria culture medium containing 0.01, 0.05 or 0.1 μg/ml of artesunate.
Layout program CleWin3.0 was used to design the microfluidic device, which consists of a 500×500 μm^2 inlet reservoir, a 500×500 μm^2 outlet reservoir, and parallel capillary channels with triangular pillar arrays (FIG. 55A). Three different pore-size of 2.5, 3.0 and 4.0 μm were designed for the capillary channels to test optimum deformation condition for the experiment. A silicon mold of the device was made using standard silicon processing techniques. The photolithography step was done using a 5× reduction step-and-repeat projection stepper (Nikon NSR2005i9, Nikon Prevision) and reactive-ion etching (RIE) techniques were used to give the mold a final depth of 4.2 μm. Final device was then casted from the silicon mold using polydimethylsiloxane (PDMS) and was sealed by a glass slide using oxygen plasma.
P. falciparum 3D7A parasites (from Malaria Research and Reference Reagent Source, American Type Culture Collection) were cultured in leukocyte-free human RBCs (Research Blood Components, Brighton Mass.) in RPMI 1640 complete medium as described (Trager and Jensen J. parasitol. 2005). […]

The structures appear in SMILES notation. “Also recorded” adds a separate entry of the source.

Take `O=CCCCC=O` [glutaraldehyde]: in assay [1] (glutaraldehyde concentrations greater than 0.003%), the “passage of RBCs into the channel” value is reported as “most RBCs were held up at the entrance to the channel, unable to deform”. The “RBCs that passed through the channels” value in assay [1] (glutaraldehyde less than 0.002%, treatment for 30 minutes) is recorded as “more than 95%”. Further, in assay [1] (increasing glutaraldehyde concentration, 30 minutes, approx. 0.61 Pa/μm), the “RBC stiffness / velocity with increasing concentration” value is reported as “progressively stiffer with decreasing velocity”.
For `C[C@H]1[C@H](OC(=O)CCC(=O)O)O[C@@H]2O[C@@]3(C)CC[C@H]4[C@H](C)CC[C@@H]1[C@@]24OO3` [artesunate], in assay [2] (2 and 4 hours after artesunate treatment), the “mobility decrease at earlier time points” value is “smaller and less pronounced mobility decrease”. Moreover, the mobility decrease in assay [2] (6 hours after artesunate treatment, 0.01, 0.05 or 0.1 μg/ml, iRBCs and uRBCs) is listed as 30%-50. In addition, in assay [2] (after 4 hour drug treatment, dosage range 0.01 to 0.1 μg/ml), the “dose dependence of mobility changes” value was “no statistically significant dose dependence”. Moreover, the “separation resolution between iRBCs and uRBCs after drug treatment” value was “almost doubled” in assay [2] and “doubled” in assay [2] (listed as Artesunate). Also, in assay [2] (iRBCs and uRBCs after artesunate treatment), the “effect on RBC deformability (stiffening)” value was “stiffening effect on both iRBCs and uRBCs; also recorded: the drop in iRBC deformability is more precipitous than in uRBC”.

Values taken from patent US20110287948A1, “MEASUREMENT OF MATERIAL PROPERTIES AND RELATED METHODS AND COMPOSITIONS BASED ON CYTOADHERENCE” (Massachusetts Institute of Technology, priority 2010, published 2011).
